Source: the supplement of paper PMC13380429

How the values were obtained:
Details in all cases: 72 h
Caco-2 [1] = experiment: cell viability relative to DMSO; higher = less toxic
Calu-3 [2] = experiment: as above
U2OS [3] = experiment: as above
Vero E6 [4] = experiment: as above
Caco-2 [5] = experiment: relative viability EC50 (midpoint between 100% and the lowest measured viability); higher = less toxic
Calu-3 [6] = experiment: as above
U2OS [7] = experiment: as above
Vero E6 [8] = experiment: as above
Caco-2 [9] = experiment: drug sensitivity score (DSS) for viability; higher = more toxic; extreme values may be limits of the assay
Calu-3 [10] = experiment: as above
U2OS [11] = experiment: as above
Vero E6 [12] = experiment: as above
HepG2 [13] = experiment: as above
HepG2 [14] = experiment: cell viability relative to DMSO; higher = less toxic

Cn1c(=O)c2c(ncn2CCOC(=O)C(C)(C)Oc2ccc(Cl)cc2)n(C)c1=O [etofylline-clofibrate]
cell viability (Caco-2 [1]; 1 nM): 98%
cell viability (Caco-2 [1]; 10 nM): 100%
cell viability (Caco-2 [1]; 100 nM): 89.4%
cell viability (Caco-2 [1]; 1000 nM): 91.4%
cell viability (Caco-2 [1]; 10000 nM): 93.9%
cell viability (Calu-3 [2]; 1 nM): 96.1%
cell viability (Calu-3 [2]; 10 nM): 98.9%
cell viability (Calu-3 [2]; 100 nM): 93.2%
cell viability (Calu-3 [2]; 1000 nM): 94.3%
cell viability (Calu-3 [2]; 10000 nM): 89.5%
cell viability (U2OS [3]; 1 nM): 98%
cell viability (U2OS [3]; 10 nM): 91.9%
cell viability (U2OS [3]; 100 nM): 101%
cell viability (U2OS [3]; 1000 nM): 95.9%
cell viability (U2OS [3]; 10000 nM): 97.3%
cell viability (Vero E6 [4]; 1 nM): 92.8%
cell viability (Vero E6 [4]; 10 nM): 109%
cell viability (Vero E6 [4]; 100 nM): 91.6%
cell viability (Vero E6 [4]; 1000 nM): 96.1%
cell viability (Vero E6 [4]; 10000 nM): 104%
relative viability EC50 (Caco-2 [5]): > 10 µM
relative viability EC50 (Calu-3 [6]): > 10 µM
relative viability EC50 (U2OS [7]): > 10 µM
relative viability EC50 (Vero E6 [8]): > 10 µM
drug sensitivity score (Caco-2 [9]): 0.3
drug sensitivity score (Calu-3 [10]): 0
drug sensitivity score (U2OS [11]): 0
drug sensitivity score (Vero E6 [12]): 0

CC(C)(C(=O)O)c1ccc(C(O)CCCN2CCC(C(O)(c3ccccc3)c3ccccc3)CC2)cc1 (centres undefined) [fexofenadine]
drug sensitivity score (Calu-3 [10]): 0
drug sensitivity score (U2OS [11]): 0
drug sensitivity score (Vero E6 [12]): 0

CC(O)CN1CCN(CC(=O)[O-])CCN(CC(=O)[O-])CCN(CC(=O)[O-])CC1.[Gd+3] (centres undefined) [gadoteridol]
cell viability (Caco-2 [1]; 1 nM): 103%
cell viability (Caco-2 [1]; 10 nM): 110%
cell viability (Caco-2 [1]; 100 nM): 96%
cell viability (Caco-2 [1]; 1000 nM): 142%
cell viability (Caco-2 [1]; 10000 nM): 92.1%
cell viability (Calu-3 [2]; 1 nM): 101%
cell viability (Calu-3 [2]; 10 nM): 91.2%
cell viability (Calu-3 [2]; 100 nM): 95.3%
cell viability (Calu-3 [2]; 1000 nM): 102%
cell viability (Calu-3 [2]; 10000 nM): 96.1%
cell viability (U2OS [3]; 1 nM): 93.2%
cell viability (U2OS [3]; 10 nM): 103%
cell viability (U2OS [3]; 100 nM): 98.5%
cell viability (U2OS [3]; 1000 nM): 99.1%
cell viability (U2OS [3]; 10000 nM): 103%
cell viability (Vero E6 [4]; 1 nM): 94.7%
cell viability (Vero E6 [4]; 10 nM): 93.1%
cell viability (Vero E6 [4]; 100 nM): 110%
cell viability (Vero E6 [4]; 1000 nM): 93.1%
cell viability (Vero E6 [4]; 10000 nM): 105%
relative viability EC50 (Caco-2 [5]): > 10 µM
relative viability EC50 (Calu-3 [6]): > 10 µM
relative viability EC50 (U2OS [7]): > 10 µM
relative viability EC50 (Vero E6 [8]): > 10 µM
drug sensitivity score (Caco-2 [9]): 0
drug sensitivity score (Calu-3 [10]): 0
drug sensitivity score (U2OS [11]): 0
drug sensitivity score (Vero E6 [12]): 0

CCC(=O)O[C@H](CC(=O)O)C[N+](C)(C)C [levocarnitine-propionate]
cell viability (Caco-2 [1]; 1 nM): 94.7%
cell viability (Caco-2 [1]; 10 nM): 103%
cell viability (Caco-2 [1]; 100 nM): 98.7%
cell viability (Caco-2 [1]; 1000 nM): 108%
cell viability (Caco-2 [1]; 10000 nM): 98.5%
cell viability (Calu-3 [2]; 1 nM): 87.9%
cell viability (Calu-3 [2]; 10 nM): 108%
cell viability (Calu-3 [2]; 100 nM): 97.9%
cell viability (Calu-3 [2]; 1000 nM): 100%
cell viability (Calu-3 [2]; 10000 nM): 85.8%
cell viability (Vero E6 [4]; 1 nM): 106%
cell viability (Vero E6 [4]; 10 nM): 105%
cell viability (Vero E6 [4]; 100 nM): 99.2%
cell viability (Vero E6 [4]; 1000 nM): 100%
cell viability (Vero E6 [4]; 10000 nM): 104%
relative viability EC50 (Caco-2 [5]): > 10 µM
relative viability EC50 (Calu-3 [6]): > 10 µM
relative viability EC50 (Vero E6 [8]): > 10 µM
drug sensitivity score (Caco-2 [9]): 0
drug sensitivity score (Calu-3 [10]): 0.2
drug sensitivity score (Vero E6 [12]): 0

CN(C)CCN(Cc1cccs1)c1ccccn1 [methapyrilene]
cell viability (Caco-2 [1]; 1 nM): 103%
cell viability (Caco-2 [1]; 10 nM): 95.2%
cell viability (Caco-2 [1]; 100 nM): 94.2%
cell viability (Caco-2 [1]; 1000 nM): 104%
cell viability (Caco-2 [1]; 10000 nM): 107%
cell viability (Calu-3 [2]; 1 nM): 101%
cell viability (Calu-3 [2]; 10 nM): 101%
cell viability (Calu-3 [2]; 100 nM): 92.6%
cell viability (Calu-3 [2]; 1000 nM): 89.3%
cell viability (Calu-3 [2]; 10000 nM): 89.7%
cell viability (U2OS [3]; 1 nM): 102%
cell viability (U2OS [3]; 10 nM): 102%
cell viability (U2OS [3]; 100 nM): 97.9%
cell viability (U2OS [3]; 1000 nM): 102%
cell viability (U2OS [3]; 10000 nM): 96.7%
cell viability (Vero E6 [4]; 1 nM): 98.1%
cell viability (Vero E6 [4]; 10 nM): 99.9%
cell viability (Vero E6 [4]; 100 nM): 101%
cell viability (Vero E6 [4]; 1000 nM): 96.4%
cell viability (Vero E6 [4]; 10000 nM): 96.3%
relative viability EC50 (Caco-2 [5]): > 10 µM
relative viability EC50 (Calu-3 [6]): > 10 µM
relative viability EC50 (U2OS [7]): > 10 µM
relative viability EC50 (Vero E6 [8]): > 10 µM
drug sensitivity score (Caco-2 [9]): 0
drug sensitivity score (Calu-3 [10]): 0.3
drug sensitivity score (U2OS [11]): 0
drug sensitivity score (Vero E6 [12]): 0

COc1c(N2C[C@@H]3CCCN[C@@H]3C2)c(F)cc2c(=O)c(C(=O)O)cn(C3CC3)c12 [moxifloxacin]
drug sensitivity score (Calu-3 [10]): 0
drug sensitivity score (HepG2 [13]): 0
drug sensitivity score (U2OS [11]): 0
drug sensitivity score (Vero E6 [12]): 0

CO[C@@H]1[C@@H](OC(N)=O)[C@@H](O)[C@H](Oc2ccc3c(O)c(NC(=O)c4ccc(O)c(CC=C(C)C)c4)c(=O)oc3c2C)OC1(C)C [novobiocin]
cell viability (Caco-2 [1]; 1 nM): 124%
cell viability (Caco-2 [1]; 10 nM): 92.9%
cell viability (Caco-2 [1]; 100 nM): 109%
cell viability (Caco-2 [1]; 1000 nM): 108%
cell viability (Caco-2 [1]; 10000 nM): 112%
cell viability (Calu-3 [2]; 1 nM): 98.1%
cell viability (Calu-3 [2]; 10 nM): 101%
cell viability (Calu-3 [2]; 100 nM): 98.8%
cell viability (Calu-3 [2]; 1000 nM): 93.6%
cell viability (Calu-3 [2]; 10000 nM): 81.2%
relative viability EC50 (Caco-2 [5]): > 10 µM
relative viability EC50 (Calu-3 [6]): > 10 µM
drug sensitivity score (Caco-2 [9]): 0
drug sensitivity score (Calu-3 [10]): 1.1

CCOC(=O)c1ccc(OCCC2CCN(c3ccc(C)nn3)CC2)cc1 [pirodavir]
drug sensitivity score (Calu-3 [10]): 0
drug sensitivity score (HepG2 [13]): 0
drug sensitivity score (U2OS [11]): 0
drug sensitivity score (Vero E6 [12]): 0

Nc1ccc(S(=O)(=O)Nc2ccccn2)cc1 [sulfapyridine]
drug sensitivity score (Calu-3 [10]): 0
drug sensitivity score (HepG2 [13]): 0
drug sensitivity score (U2OS [11]): 0
drug sensitivity score (Vero E6 [12]): 0

CC/C(=C(\c1ccccc1)c1ccc(OCCN(C)C)cc1)c1ccccc1 [tamoxifen]
cell viability (Calu-3 [2]; 1 nM): 103%
cell viability (Calu-3 [2]; 10 nM): 95.5%
cell viability (Calu-3 [2]; 100 nM): 94.7%
cell viability (Calu-3 [2]; 1000 nM): 86%
cell viability (Calu-3 [2]; 10000 nM): 52.7%
cell viability (HepG2 [14]; 1 nM): 105%
cell viability (HepG2 [14]; 10 nM): 106%
cell viability (HepG2 [14]; 100 nM): 105%
cell viability (HepG2 [14]; 1000 nM): 102%
cell viability (HepG2 [14]; 10000 nM): 73.3%
cell viability (U2OS [3]; 1 nM): 94.6%
cell viability (U2OS [3]; 10 nM): 102%
cell viability (U2OS [3]; 100 nM): 93%
cell viability (U2OS [3]; 1000 nM): 97.2%
cell viability (U2OS [3]; 10000 nM): 87.6%
cell viability (Vero E6 [4]; 1 nM): 98.9%
cell viability (Vero E6 [4]; 10 nM): 90%
cell viability (Vero E6 [4]; 100 nM): 93.3%
cell viability (Vero E6 [4]; 1000 nM): 86.9%
cell viability (Vero E6 [4]; 10000 nM): 58.9%
relative viability EC50 (U2OS [7]): > 10 µM
drug sensitivity score (Calu-3 [10]): 4.2
drug sensitivity score (HepG2 [13]): 0.9
drug sensitivity score (U2OS [11]): 0
drug sensitivity score (Vero E6 [12]): 3.4

N#C/C(=C\c1ccc(O)c(O)c1)C(=O)Nc1ccccc1 [tyrphostin-AG-494]
cell viability (Caco-2 [1]; 1 nM): 110%
cell viability (Caco-2 [1]; 10 nM): 99.8%
cell viability (Caco-2 [1]; 100 nM): 104%
cell viability (Caco-2 [1]; 1000 nM): 95.7%
cell viability (Caco-2 [1]; 10000 nM): 88.3%
cell viability (Calu-3 [2]; 1 nM): 93.5%
cell viability (Calu-3 [2]; 10 nM): 102%
cell viability (Calu-3 [2]; 100 nM): 95.1%
cell viability (Calu-3 [2]; 1000 nM): 101%
cell viability (Calu-3 [2]; 10000 nM): 107%
cell viability (HepG2 [14]; 1 nM): 101%
cell viability (HepG2 [14]; 10 nM): 102%
cell viability (HepG2 [14]; 100 nM): 98.6%
cell viability (HepG2 [14]; 1000 nM): 110%
cell viability (HepG2 [14]; 10000 nM): 54.6%
cell viability (U2OS [3]; 1 nM): 105%
cell viability (U2OS [3]; 10 nM): 102%
cell viability (U2OS [3]; 100 nM): 99.2%
cell viability (U2OS [3]; 1000 nM): 97.3%
cell viability (U2OS [3]; 10000 nM): 93.1%
cell viability (Vero E6 [4]; 1 nM): 104%
cell viability (Vero E6 [4]; 10 nM): 100%
cell viability (Vero E6 [4]; 100 nM): 104%
cell viability (Vero E6 [4]; 1000 nM): 105%
cell viability (Vero E6 [4]; 10000 nM): 90.6%
relative viability EC50 (Caco-2 [5]): > 10 µM
relative viability EC50 (Calu-3 [6]): > 10 µM
relative viability EC50 (U2OS [7]): > 10 µM
relative viability EC50 (Vero E6 [8]): > 10 µM
drug sensitivity score (Caco-2 [9]): 0.2
drug sensitivity score (Calu-3 [10]): 0
drug sensitivity score (HepG2 [13]): 1.8
drug sensitivity score (U2OS [11]): 0
drug sensitivity score (Vero E6 [12]): 0

COc1cc2/c(=N/c3ccc(Br)cc3F)nc[nH]c2cc1OCC1CCN(C)CC1 [vandetanib]
cell viability (Caco-2 [1]; 1 nM): 109%
cell viability (Caco-2 [1]; 10 nM): 105%
cell viability (Caco-2 [1]; 100 nM): 86%
cell viability (Caco-2 [1]; 1000 nM): 88.4%
cell viability (Caco-2 [1]; 10000 nM): 57.2%
cell viability (Calu-3 [2]; 1 nM): 101%
cell viability (Calu-3 [2]; 10 nM): 95.3%
cell viability (Calu-3 [2]; 100 nM): 85.7%
cell viability (Calu-3 [2]; 1000 nM): 66.2%
cell viability (Calu-3 [2]; 10000 nM): 13.4%
cell viability (HepG2 [14]; 1 nM): 113%
cell viability (HepG2 [14]; 10 nM): 106%
cell viability (HepG2 [14]; 100 nM): 110%
cell viability (HepG2 [14]; 1000 nM): 96.7%
cell viability (HepG2 [14]; 10000 nM): 74%
cell viability (Vero E6 [4]; 1 nM): 104%
cell viability (Vero E6 [4]; 10 nM): 100%
cell viability (Vero E6 [4]; 100 nM): 98.3%
cell viability (Vero E6 [4]; 1000 nM): 72.9%
cell viability (Vero E6 [4]; 10000 nM): 20.6%
relative viability EC50 (Calu-3 [6]): 1.24 µM
relative viability EC50 (Vero E6 [8]): 1.3 µM
drug sensitivity score (Caco-2 [9]): 3.3
drug sensitivity score (Calu-3 [10]): 8.7
drug sensitivity score (HepG2 [13]): 1.5
drug sensitivity score (Vero E6 [12]): 8.2
